The results in this text go back to patent publication US20220273659A1, “HETEROCYCLIC COMPOUNDS AS KINASE INHIBITORS” (NUVATION BIO INC., priority 2019, published 2022).

One assay has as its target T1, CDK9 (cyclin K) (Homo sapiens, UniProt P50750).
T1 construct: purchased Invitrogen Life Technologies (assay service)
As to the kind of experiment: LanthaScreen Eu Kinase Binding Assay. On the procedure: 0.16 μL of 100×test compound in 100% DMSO (at specific solutions) were mixed with 3.84 μL of Kinase Buffer (50 mM HEPES pH 7.5, 0.01% BRIJ-35, 10 mM MgCl2, 1 mM EGTA), 8.0 μL of 2× Kinase (5 nM)/Antibody (Eu-anti-His, 2 nM) Mixture and 4.0 μL of 4×Tracer (Tracer 236, 100 nM). The plates were shaken for 30 seconds, and incubated for 60 minutes at room temperature. The plates were read on fluorescence plate reader with Dual emission at 615 nm and 665 nm.
The following equations were used for LanthaScreen Eu Kinase Binding Assay Data Analysis. Percent inhibition (100-% activity) was fitted to the “four-parameter logistic model” in XLfit for determination of IC50 values.

In a further assay the target is T2, PI3Kδ kinase (Homo sapiens, UniProt O00329).
T2 construct: purchased Reaction Biology Corporation (assay service)
As to the kind of experiment: PI3Kδ kinase assay (ADP-Glo, Reaction Biology). Format: biochemical. In outline: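 Kinase in Tris-HCl 40 mM pH 7.5, MgCl2 20 mM, orthovanadate 3 mM, DTT 2 mM, 0.05% CHAPS, 1% DMSO, preincubated 10 min at room temperature with compound (about 0.5 nM–100 μM). ATP started a 30-min reaction at 30 °C. ADP-Glo luminescence converted to μM ADP via standard curve; IC50 from nonlinear regression.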

In assay [1] the test system is BT-549 breast ductal carcinoma cells. Kind of assay: Cancer cell proliferation assay, single agent (cell viability). It is filed as cell-based. Particulars: Homo sapiens, Table 4, Rb negative, treatment 24 Hr, Cell Titer-Glo or resazurin. In outline: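 Viability read by resazurin or CellTiter-Glo after 24 h treatment (BT-549) or 144 h with a 72 h medium change (MCF-7, DU4475). Compounds tested at 7–9 concentrations, e.g. 1.1 nM–10 μM, added the day after seeding; IC50 by nonlinear sigmoidal regression.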

For assay [2], the system named is MCF-7-PR (palbociclib-resistant MCF-7) cells. As to the kind of experiment: Cell viability in palbociclib-resistant cell line. Format: cell-based. Particulars: Homo sapiens, MCF7; Table 5; palbociclib-resistant cell line maintained at about 850 nM palbociclib. On the procedure:
Cells were treated with test compounds at 7 to 9 concentrations within a desired concentration range (e.g. 1.1 nM-10 μM) on day 2 by series diluting the test compound stock solution (10 mM in DMSO) with culture medium. Treatment duration was 24 Hr for BT-549 cells and 144 Hr (with a medium change at 72 Hr) for MCF-7 and DU4475 cells. Cell viability was assessed by Cell Titer-Glo® as recommended by Promega (Cat. No.: G7572), or by resazurin assay (Sigma Aldrich, Cat. No.: R7017) post treatment.
Cell viability data were plotted using GraphPad Prism (GraphPad Software, Inc., San Diego, Calif.). In addition, a nonlinear regression model with a sigmoidal dose response and variable slope within GraphPad Prism was used to calculate the IC50 value of individual test compounds.
The effects of test compounds in a palbociclib-resistant cell line and a parental, non-resistant cell line were compared. The palbociclib-resistant cell line (“MCF-7-PR”) was derived from the parental, non-resistant cell line (MCF-7 breast adenocarcinoma cells) by culture of cells over a period of three months in increasing concentrations of palbociclib, starting from about 350 nM and ending at about 850 nM, the final concentration at which they were then maintained in culture. The MCF-7-PR cells were checked using a cell viability assay to confirm that they had at least 5-fold resistance to palbociclib compared to parental MCF-7 cells, as measured by an increase in the cell viability IC50 values. Assessment of cell viability following treatment with palbociclib or test compounds was performed according to the method described above for MCF-7 cells.

Assay [3] deals with Rb Ser780 phosphorylation in MCF-7 cells. Kind of assay: Determination of pRb levels (Ser780 phosphorylation, ELISA). It is filed as cell-based. Particulars: Homo sapiens; for inhibition at 0.01 µM: MCF7, 0.01 μM; for inhibition at 0.01 µM / inhibition at 0.1 µM / inhibition at 1 µM: 24H treatment, percentage of vehicle control; for inhibition at 0.1 µM: MCF7, 0.1 μM; for inhibition at 1 µM: MCF7, 1 μM. On the procedure: Hypo-phosphorylation of the retinoblastoma protein (Rb) by cyclin D:Cdk4/6 complexes results in active Rb, which is a clinically relevant biomarker associated with CDK4 or CDK6 inhibition. As a confirmatory measure of functional activity of CDK4/6, the Ser780 phosphorylation state of Rb was assessed. MCF-7 cells were plated at 2.5×10^5 to 3.0×10^6 cells/well in 6-well cell-culture plates and incubated at 37° C. for 24H in MEM medium supplemented with 10% FBS. Cells were treated for 24H with a medium containing test compound at various concentrations (e.g., 0.01, 0.1, […]) or with DMSO (≤1%) in duplicate. After incubation period, the media was removed, and cells were rinsed once with ice-cold PBS and lysed with 0.2 mL of Cell Lysis Buffer containing 1 mM PMSF and Protease Inhibitor. Protein concentration was estimated following Bradford method. The lysis and the Rb measurements were performed following the manufacturer's ELISA kit protocols and buffers (Cell Signaling Technology, Cat. No.: 13016C). Rb inhibition of test compounds was calculated as percentage of vehicle control. In some cases, a nonlinear regression model with a sigmoidal dose response and variable slope within GraphPad Prism was used to calculate the IC50 value of Rb inhibition for individual test compounds.

T2 sequence (O00329 whole entry): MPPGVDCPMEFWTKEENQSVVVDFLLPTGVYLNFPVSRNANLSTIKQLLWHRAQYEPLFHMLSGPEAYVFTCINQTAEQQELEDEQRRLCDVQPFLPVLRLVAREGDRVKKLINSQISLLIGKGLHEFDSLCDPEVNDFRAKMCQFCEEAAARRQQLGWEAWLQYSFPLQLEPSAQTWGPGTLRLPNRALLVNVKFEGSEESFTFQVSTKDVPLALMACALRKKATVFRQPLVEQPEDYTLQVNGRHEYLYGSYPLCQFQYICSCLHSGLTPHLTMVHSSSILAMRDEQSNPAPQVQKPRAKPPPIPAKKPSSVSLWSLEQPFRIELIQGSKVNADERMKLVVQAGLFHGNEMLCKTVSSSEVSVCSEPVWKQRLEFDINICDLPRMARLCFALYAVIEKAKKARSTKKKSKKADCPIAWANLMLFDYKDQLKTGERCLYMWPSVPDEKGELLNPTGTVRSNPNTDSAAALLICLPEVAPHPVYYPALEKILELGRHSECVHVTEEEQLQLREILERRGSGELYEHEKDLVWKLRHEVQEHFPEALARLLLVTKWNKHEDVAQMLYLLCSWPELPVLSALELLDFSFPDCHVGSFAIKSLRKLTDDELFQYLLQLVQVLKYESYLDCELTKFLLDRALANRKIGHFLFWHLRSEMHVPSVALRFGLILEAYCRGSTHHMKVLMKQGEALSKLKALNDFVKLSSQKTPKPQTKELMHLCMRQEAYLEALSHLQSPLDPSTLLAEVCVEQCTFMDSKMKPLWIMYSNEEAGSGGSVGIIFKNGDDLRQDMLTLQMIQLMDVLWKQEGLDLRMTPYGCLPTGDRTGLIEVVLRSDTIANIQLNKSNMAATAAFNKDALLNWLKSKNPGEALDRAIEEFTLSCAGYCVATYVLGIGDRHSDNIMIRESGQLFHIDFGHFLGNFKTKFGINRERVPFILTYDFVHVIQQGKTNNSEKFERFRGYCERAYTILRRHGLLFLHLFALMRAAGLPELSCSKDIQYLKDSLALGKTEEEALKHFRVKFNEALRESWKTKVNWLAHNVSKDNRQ
T2 sequence (P27986 whole entry partner): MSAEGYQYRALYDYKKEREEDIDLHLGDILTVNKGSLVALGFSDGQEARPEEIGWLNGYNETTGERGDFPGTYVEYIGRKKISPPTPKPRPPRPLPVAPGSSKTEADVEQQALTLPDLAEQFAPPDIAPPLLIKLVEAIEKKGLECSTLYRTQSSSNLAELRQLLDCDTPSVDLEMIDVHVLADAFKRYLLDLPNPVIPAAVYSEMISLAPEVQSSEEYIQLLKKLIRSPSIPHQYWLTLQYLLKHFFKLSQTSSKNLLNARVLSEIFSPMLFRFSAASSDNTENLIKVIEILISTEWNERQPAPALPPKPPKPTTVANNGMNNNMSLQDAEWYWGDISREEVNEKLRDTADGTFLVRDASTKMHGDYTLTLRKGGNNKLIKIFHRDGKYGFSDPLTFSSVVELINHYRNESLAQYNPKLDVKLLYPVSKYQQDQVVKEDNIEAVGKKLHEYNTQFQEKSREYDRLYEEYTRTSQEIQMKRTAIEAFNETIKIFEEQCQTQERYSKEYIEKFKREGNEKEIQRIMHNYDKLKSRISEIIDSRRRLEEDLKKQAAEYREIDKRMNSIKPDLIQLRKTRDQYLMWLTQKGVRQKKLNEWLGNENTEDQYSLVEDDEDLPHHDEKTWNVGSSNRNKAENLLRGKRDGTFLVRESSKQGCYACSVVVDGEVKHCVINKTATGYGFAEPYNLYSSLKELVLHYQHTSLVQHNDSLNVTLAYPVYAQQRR
T1 sequence (P50750 whole entry): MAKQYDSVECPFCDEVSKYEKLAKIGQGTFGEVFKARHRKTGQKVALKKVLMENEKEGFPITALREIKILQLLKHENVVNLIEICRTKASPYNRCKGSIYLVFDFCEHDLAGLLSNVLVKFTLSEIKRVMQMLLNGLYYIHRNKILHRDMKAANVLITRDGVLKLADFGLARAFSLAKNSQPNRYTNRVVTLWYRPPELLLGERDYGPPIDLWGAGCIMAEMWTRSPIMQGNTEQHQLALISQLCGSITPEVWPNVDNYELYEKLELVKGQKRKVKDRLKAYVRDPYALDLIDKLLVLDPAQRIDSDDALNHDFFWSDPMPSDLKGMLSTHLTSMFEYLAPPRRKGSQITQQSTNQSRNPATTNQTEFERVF
T1 sequence (O75909 whole entry partner): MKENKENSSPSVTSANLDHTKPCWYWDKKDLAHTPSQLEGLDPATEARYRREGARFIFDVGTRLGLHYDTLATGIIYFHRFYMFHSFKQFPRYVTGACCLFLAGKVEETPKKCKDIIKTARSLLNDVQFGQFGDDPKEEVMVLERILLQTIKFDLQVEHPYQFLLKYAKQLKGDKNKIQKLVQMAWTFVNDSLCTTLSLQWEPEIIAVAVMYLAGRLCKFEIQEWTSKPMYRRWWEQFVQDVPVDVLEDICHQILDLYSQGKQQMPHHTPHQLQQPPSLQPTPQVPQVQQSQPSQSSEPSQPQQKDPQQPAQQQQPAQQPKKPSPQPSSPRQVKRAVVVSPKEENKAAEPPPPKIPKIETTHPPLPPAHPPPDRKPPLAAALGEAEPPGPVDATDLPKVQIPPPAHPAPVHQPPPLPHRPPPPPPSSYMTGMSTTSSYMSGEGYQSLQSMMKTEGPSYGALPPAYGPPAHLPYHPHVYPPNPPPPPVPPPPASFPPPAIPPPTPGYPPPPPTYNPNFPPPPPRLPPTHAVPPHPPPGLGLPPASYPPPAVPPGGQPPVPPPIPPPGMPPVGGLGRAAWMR

As to `N#Cc1cc2cnc(Nc3ccc4c(c3)CCNC4)nc2n(C2CCCC2)c1=O` [Compound No. 31, 8-cyclopentyl-7-oxo-2-((1,2,3,4-tetrahydroisoquinolin-6-yl)amino)-7,8-dihydropyrido[2,3-d]pyrimidine-6-carbonitrile], the concentration for half-maximal inhibition (IC50) on CDK9 (cyclin K) was 20 nM; against PI3Kδ kinase, 128 nM; in assay [1], 1110 nM; in assay [2] it was 248 nM. The inhibition at 0.01 µM in assay [3] amounted to 1%. Also, in assay [3], the inhibition at 0.1 µM was 27%. Also, at 1 µM the inhibition in assay [3] was 95%.
The compound `N#Cc1cc2cnc(Nc3ccc(N4CCNCC4)c(F)c3)nc2n(C2CCCC2)c1=O` [Compound No. 13, 8-cyclopentyl-2-((3-fluoro-4-(piperazin-1-yl)phenyl)amino)-7-oxo-7,8-dihydropyrido[2,3-d]pyrimidine-6-carbonitrile] gave an IC50 on PI3Kδ kinase of 561 nM. Also, the IC50 in assay [1] came to 1400 nM. The 50% inhibitory concentration (IC50) in assay [2] worked out at 481 nM. In assay [3], this compound returned an inhibition at 0.01 µM of 35%, an inhibition at 0.1 µM of 58% and an inhibition at 1 µM of 93%.
In the case of `CS(=O)(=O)N1CCC(Nc2ncc3cc(C#N)c(=O)n(C4CC5CC5C4)c3n2)CC1` (centres unmarked) [Compound No. 341, 8-(bicyclo[3.1.0]hexan-3-yl)-2-((1-(methylsulfonyl)piperidin-4-yl)amino)-7-oxo-7,8-dihydropyrido[2,3-d]pyrimidine-6-carbonitrile], the IC50 is greater than 50000 nM at PI3Kδ kinase and 690 nM in assay [2].
Turning to `CS(=O)(=O)N1CCC(Nc2ncc3cc(C#N)c(=O)n(C4CCCC4)c3n2)CC1` [Compound No. 93, 8-cyclopentyl-2-((1-(methylsulfonyl)piperidin-4-yl)amino)-7-oxo-7,8-dihydropyrido[2,3-d]pyrimidine-6-carbonitrile], the IC50 was 12100 nM at PI3Kδ kinase; 911 nM in assay [2]; less than 123 nM in assay [3] (MCF7, 24H treatment, read-out: Inhibition of Rb phosphorylation IC50).
Regarding `CS(=O)(=O)N1CCC(Nc2ncc3cc(C#N)c(=O)n(C4CCC(F)(F)C4)c3n2)CC1` (racemic) [Compound No. 345, 8-(3,3-difluorocyclopentyl)-2-((1-(methylsulfonyl)piperidin-4-yl)amino)-7-oxo-7,8-dihydropyrido[2,3-d]pyrimidine-6-carbonitrile], the IC50 against PI3Kδ kinase was greater than 50000 nM; in assay [2], 6230 nM.
Consider `N#Cc1cc2cnc(Nc3ccc4c(c3)CCNC4)nc2n(C2CC3CC3C2)c1=O` (centres unmarked) [Compound No. 342, 8-(bicyclo[3.1.0]hexan-3-yl)-7-oxo-2-((1,2,3,4-tetrahydroisoquinolin-6-yl)amino)-7,8-dihydropyrido[2,3-d]pyrimidine-6-carbonitrile], for which the half-maximal inhibitory concentration (IC50) worked out at 421 nM against PI3Kδ kinase and 361 nM in assay [2].
As to `N#Cc1cc2cnc(Nc3ccc4c(c3)CNCC4)nc2n(C2CCCC2)c1=O` [Compound No. 29, 8-cyclopentyl-7-oxo-2-((1,2,3,4-tetrahydroisoquinolin-7-yl)amino)-7,8-dihydropyrido[2,3-d]pyrimidine-6-carbonitrile], the IC50 on PI3Kδ kinase was 552 nM. In assay [3], this compound gave an inhibition at 0.01 µM of 12%, an inhibition at 0.1 µM of 27% and an inhibition at 1 µM of 44%.
